Assay results published in patent US6214792A, “Method for treating acute and severe diarrhea” (priority 1999, dated 2001).

Assays:
[1] = system: patient addicted to narcotics; experiment: Clinical treatment of acute and severe diarrhea accompanying rapid narcotic detoxification (acute withdrawal); type: in vivo, human; settings: parenteral, about 0.025 mg to about 0.1 mg octreotide, preferably about 0.0007 mg/kg, before nalmefene
Description: A medication to induce unconsciousness is administered, preferably by the intravenous route, in doses appropriate for the patient's weight and medical condition. This medication should be a non-opioid derivative not related to the narcotic classification of drugs, such as midazolam, propofol, sodium pentothal, a combination thereof, or other drugs commonly used to induce unconsciousness. As a specific example, a dose of 0.3 milligrams of midazolam per kilogram of body weight administered intravenously is usually sufficient to produce unconsciousness.
After octreotide and glycopyrrolate have been administered and the patient's vital signs are stable, nalmefene is administered parenterally, preferably by intravenous route. For a 70 kilogram adult patient, the typical initial dose of parenteral nalmefene is from about 0.5-1.5 mg to no more than about 1.5-2.0 of nalmefene. The dosage is adjusted proportionally based on the weight of the patient, and the rate of administration of nalmefene may be titrated upward or downward depending on the response of the patient's sympathetic nervous system as evidence by monitoring of life functions and other clinical criteria. Some time thereafter, usually no more than four hours after said administration of nalmefene is complete, the patient can be expected to be detoxified and can be safely rendered back to a state of consciousness. […]

[2] = system: patient addicted to narcotics; experiment: Clinical tolerability (bradycardia, abdominal distention) of octreotide during rapid narcotic detoxification; settings: parenteral
Description: A patient addicted to narcotics undergoes intravenous cannulation by either the peripheral or central venous route, and the appropriate intravenous solution is infused intravenously at the required rate for the size and conditions of the patient. Monitors of life function are attached to the patient which may include a pulse oximeter, electrocardiogram patches, a blood pressure cuff attached to a sphygmomanometer and a means to measure the carbon dioxide of the patient's exhaled breath by way of capnography.
This is typically followed by intravenous administration of a medication such as a depolarizing or non-depolarizing neuromuscular blocking agent to facilitate intubation of the patient's trachea. The endotracheal tube is then secured in the correct anatomic position using usual anesthetic care measures. After stabilization of the patient's life functions as usually done in routine anesthetic management, the patient is administered parenterally about 0.025 mg to about 0.1 mg octreotide, preferably about 0.0007 mg/kg of body weight.
As noted previously, glycopyrrolate is preferred and is administered parenterally with the octreotide in an amount ranging from about 0.2 mg to above 0.4 mg glycopyrrolate. However, from about 0.2 mg to about 0.4 mg atropine administered parenterally is also effective.

[3] = system: patient addicted to narcotics; settings: background statement, prior practice, dose not given; cited from earlier work
[4] = system: patient addicted to narcotics; settings: background statement, prior practice, dose not given; cited from earlier work; remark: listed apart in the source

For octreotide, the “prevention of acute and severe diarrhea accompanying acute detoxification” value [1] was “sufficient to prevent the acute and severe diarrhea”, the “bradycardia in the post-detoxification period” value ([2]; about 0.025 mg to about 0.05 mg octreotide every 12 hours) was “without causing significant bradycardia” and the bradycardia ([2]; about 0.025 mg to about 0.1 mg octreotide, preferably about 0.0007 mg/kg) was “does not precipitate significant bradycardia”. For the same substance, the abdominal distention ([2]; about 0.025 mg to about 0.1 mg octreotide, distention frequently observed at higher dosage levels) was “does not result in the abdominal distention”, the “treating clinically significant diarrhea during rapid detoxification” value [3] was “proven effective” and the incidence of bradycardia [4] was “unacceptable incidence of bradycardia”.
